For one series, the target named is TgPheRS[V262A] (Toxoplasma gondii, UniProt A0A125YPN6, V262A). In words: Enzyme assay, TgPheRS V262A. Type of series: biochemical. As to conditions: Table S4, V262A; read-out: IC50 (enzyme inhibition).
The test system of series [1] is N. caninum expressing lacZ. In words: Neospora caninum β-galactosidase assay. The class given is cell-based. Conditions: Neospora caninum. The procedure: β-galactosidase assays were conducted using tissue culture grade 96-well plates (TPP) containing confluent monolayers of HFF cells. A 10-point compound dilution series (2-fold) for each compound was generated as described above (2X concentration, 0.1% final DMSO). Growth of the N. caninum strain expressing lacZ was monitoring using a β-galactosidase (β-gal) assay as described in[21] with the following modifications. N. caninum lacZ expressing parasites (1 × 10^3) were added (in 100 μL volume) into 96-well plates containing HFF monolayers to reach final compound concentration (5.0 μM to 0.002 μM in 200 μL total volume). Plates were incubated at 37 °C, 5% CO2 for 72 h prior to completing β-gal assay as previously described[23],[27],[51]. Briefly, parasite containing monolayers were lysed with 1.0% Triton X-100 and β-gal activity determined by adding 1 mM chlorophenolred-β-D-galactopyranoside followed by monitoring absorption at 570 nm on a Cytation 3 multi-mode imager (BioTek), as described.

Series [2] has as its system T. gondii RHΔΔ TgPheRS[M484I] [V262A] double mutant. Briefly: Tachyzoite lytic assay, M484I_V262A double mutant. As to conditions: for pEC50: Toxoplasma gondii. The class given is cell-based, Toxoplasma gondii. The protocol: In vitro cultures of HFF cells containing mature vacuoles were scraped, passaged through 23 g blunt end needles, and filtered using 3 micron filters. Purified parasites were resuspended in 350 μL of cytomix plus[49] and combined in a BTX 4 mm gap cuvette with 30 μL of PCR amplified templates corresponding to mutations of interest and 10 μg of pSAG1:Cas9-GFP U6:sgTgPheRS^[mut] (in 20 μL, 400 μL total volume, see Supplementary Data 1 for sgRNA sequences) prior to electroporation using a BTX ETM 830 electroporator. Amplified templates for TgPheRS mutations were generated from gBlocks (Integrated DNA Technologies, Coralville, IA, USA) that contain a BclI restriction site that replaces the PAM sequence to protect the repair template from being cut by Cas9. At 16 h post-transfection, transgenic parasites expressing pSAG1:Cas9-GFP were sorted on a Sony SH800 FACS sorter directly into 96-well plates. Single clones containing TgPheRS^[mut] were identified by amplifying a ~500 bp PCR fragment around introduced mutation followed by digestion using BclI (New England Biolabs) BclI sensitive clones were expanded and the locus was Sanger sequenced to verify incorporation of each independent mutation. To generate firefly luciferase (FLuc) expressing strains, freshly harvested parasites were combined with 20 μg of pTUB-FLUC DHFR flox plasmid and 10 μg of pSAG1:Cas9-GFP U6:sgUPRT[50] (in 50 μL cytomix plus) and transformed by electroporation as described above. […]
Parasite growth on HFF monolayers was monitored using a 96-well plate-based lytic assay modified from a previously described protocol. […] Plates were rinsed with water, air dried, and absorption quantified on the Cytation 3 multi-mode imager at 570 nm wavelength. % parasite growth was calculated as 100−[(OD value for infected cultures at each concentration of compound/average OD value for no compound and no parasite infection) × 100]. EC50 values were calculated based on the mean of three biological replicates with each replicate containing two technical replicates.

For series [3] the following is noted: mouse; cited from earlier work.
Series [4] relates to HFF (primary human foreskin fibroblast). In words: in vitro. The class given is cell-based. Conditions: EC50 host cell/EC50 T. gondii. The protocol:
For the toxicity screen, compounds were tested in 96-well plates using all the wells as no edge affect was observed. Compounds were diluted to 40 μM (2x concentration in 10% DMEM, 0.4% DMSO) before step-wise, 3-fold dilution in 10% DMEM to create 10-dose series (20 μM to 0.001 μM). Host cells were plated in black, μ-Clear 96-well plates (Greiner Bio-One). We compared several lineages including HepG2 (human hepatocellular carcinoma (ATCC-HB-8065)), THP-1 (human monocytic tumor line), SH-SY5Y (human neuroblastoma (ATCC CRL-2266)), A549 (human lung carcinoma (ATCC CRM-CCL-185)) and Caco-2 (human intestinal adenocarcinoma (ATCC HTB-37)) and HFF (primary human foreskin fibroblast) obtained from the laboratory of John Boothroyd at Stanford University. Cells were maintained in culture media according to the formulations recommended by ATCC. Cells were plated at a density (ranging from of 5 × 10^3 to 2 × 10^4 cells/well (100 μL vol)) resulting in sub-confluent monolayers to allow expansion during the 2 day growth assay. THP-1 cells were treated with 10 ng/ml phorbol 12-myristate 13-acetate (PMA) for 24 h to differentiate into macrophages before compound addition. For all other cells, compounds were added at 6 h post seeding to host cells containing plates (200 μL final volume, 0.2% DMSO) and incubated in culture medium at 37 °C supplemented with 5% CO2. At 44 h post compound addition (50 h total growth time), culture media was aspirated and replaced with Live Imaging solution (ThermoFisher) supplemented with 10 μg/mL Hoeschst 33342 (Sigma) for 20 min at 37 °C. […] Alternatively, plates fixed with 4% formaldehyde for 10 min and stained with 10 μg/mL Hoeschst 33342 (Sigma) for 20 min and imaged using a Cytation 3 multi-mode imager (DAPI, 10x objective, 4 images/well) and nuclei quantified using the Gen5 imager software (v3.08). Assays were repeated with two technical replicates within each of two independent biological replicates.
All statistical analyses were conducted using Prism 9 (GraphPad Software, Inc.). Dose–response inhibition curves for parasite and host cell toxicity screens (EC50 values) were generated using (Log(inhibitor) vs. normalized response—Variable slope) function. […] For multiple comparisons, two-way ANOVA analysis function using either Sidák’s multiple comparisons test or Dunnett’s multiple comparisons test was applied as indicated.

pEC50, pIC50: −log10 of the molar value. Like-named read-outs stand apart in the source and are kept apart here.

For orientation: pIC50 means the IC50 on a negative log10 scale, so that one unit is a factor of ten. As usually defined, the pEC50 is the negative decadic logarithm of the EC50, by convention in mol/L.

Regarding `COc1ccc(NC(=O)N2CCCCN3[C@H](CN(C)C)[C@H](c4ccc(C#Cc5ccccc5)cc4)[C@@H]3C2)cc1` [BRD7929], the pIC50 at TgPheRS[V262A] is 6.68. Besides, the pEC50 in series [1] (Table S3, 72 h, lacZ, read-out: N. caninum EC50) is 7.38; in series [1] (read-out: N. caninum (EC50, Fig S2 source data)), 7.37; in series [2] (72 h, read-out: EC50, M484I_V262A) it was 6.58; in series [2] (Table S4, V262A-M484I, read-out: EC50 (growth restriction)) it was 6.63. Besides, the “shift of EC50, double mutant” value in series [2] (M484I and V262A double mutant) was “only shifted the EC50 slightly more than every single mutation”. For the same compound, the oral bioavailability in series [3] is recorded as 80%.

Take `COc1ccc(NC(=O)N2CCCCN3[C@H](CN(C)S(C)(=O)=O)[C@H](c4ccc(C#Cc5ccccc5)cc4)[C@@H]3C2)cc1` [BRD8494]: the HFF fold selectivity in series [4] stood at 571.4 fold.
